Read-outs that look alike come from different tables or passages of the source.
Experiments:
[1] = target: T1, STAT6 (Homo sapiens, UniProt P42226); test: Immunoblotting (Western blot) analysis of STAT6 degradation efficiency of degraders in treated cells; format: cell-based
T1 construct: endogenous in cells; host or cells: MOLM-16, KU-812, SKNO1, MB231, L1236
T1 sequence (P42226 1-847): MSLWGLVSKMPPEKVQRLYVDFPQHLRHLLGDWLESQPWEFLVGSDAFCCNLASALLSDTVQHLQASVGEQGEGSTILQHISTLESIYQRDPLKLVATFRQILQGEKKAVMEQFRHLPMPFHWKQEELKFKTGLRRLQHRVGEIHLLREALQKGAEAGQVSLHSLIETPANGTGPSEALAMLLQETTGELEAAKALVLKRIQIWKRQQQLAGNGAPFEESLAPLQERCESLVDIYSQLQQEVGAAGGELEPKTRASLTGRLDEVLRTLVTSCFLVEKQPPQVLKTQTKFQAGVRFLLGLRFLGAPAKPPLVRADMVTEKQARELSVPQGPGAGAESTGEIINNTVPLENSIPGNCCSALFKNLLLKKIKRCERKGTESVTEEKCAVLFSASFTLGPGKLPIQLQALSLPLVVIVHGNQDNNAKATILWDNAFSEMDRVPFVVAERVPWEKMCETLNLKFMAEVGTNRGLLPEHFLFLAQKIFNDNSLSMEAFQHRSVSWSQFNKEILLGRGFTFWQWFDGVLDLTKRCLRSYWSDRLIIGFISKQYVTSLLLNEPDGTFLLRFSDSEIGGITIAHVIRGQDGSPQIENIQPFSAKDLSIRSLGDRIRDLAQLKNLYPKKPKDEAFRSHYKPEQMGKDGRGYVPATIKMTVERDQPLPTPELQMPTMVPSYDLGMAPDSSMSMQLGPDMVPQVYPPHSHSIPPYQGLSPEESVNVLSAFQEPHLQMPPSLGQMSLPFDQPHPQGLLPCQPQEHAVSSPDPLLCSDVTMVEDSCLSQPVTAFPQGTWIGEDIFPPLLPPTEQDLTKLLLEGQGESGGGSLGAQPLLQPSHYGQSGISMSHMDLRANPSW
Summary of the method: (§1)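 Cells (~1 million per point) treated with compounds at indicated concentrations and times, lysed in RIPA with protease/phosphatase inhibitors; 20-40 μg protein run on SDS-PAGE and blotted to PVDF. STAT6 or STAT5 rabbit mAbs with GAPDH loading control, IRDye secondaries; near-infrared fluorescence scan, band intensity quantified.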

[2] = tested on: STAT5; test: Immunoblotting (Western blot) analysis of STAT5 degradation efficiency of degraders in treated cells; format: cell-based
Summary of the method: as §1

[3] = MOLM-16 cells, numeric bound, read-out: DC50 S6 MOLM-16
[4] = MOLM-16 cells, class symbols, read-out: DC50 S5 MOLM-16
[5] = KU-812 cells, read-out: DC50 S5 KU-812
[6] = SKNO1 cells, read-out: DC50 S5 SKNO1
[7] = MOLM-16 cells, class symbols, read-out: DC50 S6 MOLM-16
[8] = MOLM-16 cells, numeric bound, read-out: DC50 S5 MOLM-16
[9] = L1236 cells, read-out: DC50 S6 L1236
[10] = MB231 cells, read-out: DC50 S6 MB231

Row | SMILES | DC50 [1, 3] [µM] | DC50 [2, 4] [nM] | DC50 [2, 5] [nM] | DC50 [2, 6] [nM] | also measured
1 | CN(CCCC#Cc1cccc2c1CN(C1CCC(=O)NC1=O)C2=O)C(=O)CCN(C(=O)[C@@H]1CCCN1C(=O)[C@@H](NC(=O)c1cc2cc(C(F)(F)P(=O)(O)OCOC(=O)C(C)(C)C)ccc2s1)C(C)(C)C)c1ccc2occc2c1 (stereo partly drawn) [Compound 672, ((((2-(((2S)-1-((2S)-2-(benzofuran-5-yl(3-((5-(2-(2,6-dioxopiperidin-3-yl)-1-oxoisoindolin-4-yl)pent-4-yn-1-yl)(methyl)amino)-3-oxopropyl)carbamoyl)pyrrolidin-1-yl)-3,3-dimethyl-1-oxobutan-2-yl)carbamoyl)benzo[b]thiophen-5-yl)difluoromethyl)(hydroxy)phosphoryl)oxy)methyl pivalate] | > 0.3 | < 100 | – | – | –
2 | CC(C)(C)[C@H](NC(=O)c1cc2cc(C(F)(F)P(=O)(O)O)ccc2s1)C(=O)N1CCC[C@H]1C(=O)N(CCC(=O)NCCCC#Cc1cccc2c1CN(C1CCC(=O)NC1=O)C2=O)c1ccc2sccc2c1 (stereo partly drawn) [Compound 650, ((2-(((2S)-1-((2S)-2-(benzo[b]thiophen-5-yl(3-((5-(2-(2,6-dioxopiperidin-3-yl)-1-oxoisoindolin-4-yl)pent-4-yn-1-yl)amino)-3-oxopropyl)carbamoyl)pyrrolidin-1-yl)-3,3-dimethyl-1-oxobutan-2-yl)carbamoyl)benzo[b]thiophen-5-yl)difluoromethyl)phosphonic acid] | > 0.3 | < 100 | 100 to 1000 | 100 to 1000 | –
3 | CN(CCCC#Cc1cccc2c1CN(C1CCC(=O)NC1=O)C2=O)C(=O)CCN(C(=O)[C@@H]1CCCN1C(=O)[C@@H](NC(=O)c1cc2cc(C(F)(F)P(=O)(O)O)ccc2s1)C(C)(C)C)c1ccc2ccccc2c1 (stereo partly drawn) [Compound 680, ((2-(((2S)-1-((2S)-2-((3-((5-(2-(2,6-dioxopiperidin-3-yl)-1-oxoisoindolin-4-yl)pent-4-yn-1-yl)(methyl)amino)-3-oxopropyl)(naphthalen-2-yl)carbamoyl)pyrrolidin-1-yl)-3,3-dimethyl-1-oxobutan-2-yl)carbamoyl)benzo[b]thiophen-5-yl)difluoromethyl)phosphonic acid] | – | < 100 | 100 to 1000 | 100 to 1000 | DC50 [1, 7]: > 10 µM
4 | CC(C)(C)C(=O)OCOP(=O)(O)C(F)(F)c1ccc2sc(C(=O)N[C@H](C(=O)N3CCC[C@H]3C(=O)N(CCC(=O)NCCCC#Cc3cccc4c3CN(C3CCC(=O)NC3=O)C4=O)c3ccc(Br)cc3)C(C)(C)C)cc2c1 (stereo partly drawn) [Compound 653, ((((2-(((2S)-1-((2S)-2-((4-bromophenyl)(3-((5-(2-(2,6-dioxopiperidin-3-yl)-1-oxoisoindolin-4-yl)pent-4-yn-1-yl)amino)-3-oxopropyl)carbamoyl)pyrrolidin-1-yl)-3,3-dimethyl-1-oxobutan-2-yl)carbamoyl)benzo[b]thiophen-5-yl)difluoromethyl)(hydroxy)phosphoryl)oxy)methyl pivalate] | – | – | – | – | DC50 [1, 7]: < 0.1 µM; DC50 [2, 8]: > 300 nM
5 | CC(C)(C)[C@H](NC(=O)c1cc2cc(C(F)(F)P(=O)(O)O)ccc2s1)C(=O)N1CCC[C@H]1C(=O)N(CCC(=O)NCCC#Cc1cccc2c1CN(C1CCC(=O)NC1=O)C2=O)c1ccc(Br)cc1 (stereo partly drawn) [Compound 614, ((2-(((2S)-1-((2S)-2-((4-bromophenyl)(3-((4-(2-(2,6-dioxopiperidin-3-yl)-1-oxoisoindolin-4-yl)but-3-yn-1-yl)amino)-3-oxopropyl)carbamoyl)pyrrolidin-1-yl)-3,3-dimethyl-1-oxobutan-2-yl)carbamoyl)benzo[b]thiophen-5-yl)difluoromethyl)phosphonic acid] | – | – | > 10000 | > 10000 | DC50 [1, 7]: > 10 µM; DC50 [2, 8]: > 300 nM
6 | CN(CCCC#Cc1cccc2c1CN(C1CCC(=O)NC1=O)C2=O)C(=O)CCN(C(=O)[C@@H]1CCCN1C(=O)[C@@H](NC(=O)c1cc2cc(C(F)(F)P(=O)(O)OCOC(=O)C(C)(C)C)ccc2s1)C(C)(C)C)c1ccc2ccoc2c1 (stereo partly drawn) [Compound 674, ((((2-(((2S)-1-((2S)-2-(benzofuran-6-yl(3-((5-(2-(2,6-dioxopiperidin-3-yl)-1-oxoisoindolin-4-yl)pent-4-yn-1-yl)(methyl)amino)-3-oxopropyl)carbamoyl)pyrrolidin-1-yl)-3,3-dimethyl-1-oxobutan-2-yl)carbamoyl)benzo[b]thiophen-5-yl)difluoromethyl)(hydroxy)phosphoryl)oxy)methyl pivalate] | > 0.3 | < 100 | – | – | –
7 | CN(C(=O)[C@@H]1C[C@@H](OCC(=O)NCCCCCCCCCC#Cc2cccc3c2CN(C2CCC(=O)NC2=O)C3=O)CN1C(=O)[C@@H](NC(=O)c1cc2cc(C(F)(F)P(=O)(O)O)ccc2s1)C(C)(C)C)c1ccc(Br)cc1 (stereo partly drawn) [Compound 415, ((2-(((2S)-1-((2S,4R)-2-((4-bromophenyl)(methyl)carbamoyl)-4-(2-((11-(2-(2,6-dioxopiperidin-3-yl)-1-oxoisoindolin-4-yl)undec-10-yn-1-yl)amino)-2-oxoethoxy)pyrrolidin-1-yl)-3,3-dimethyl-1-oxobutan-2-yl)carbamoyl)benzo[b]thiophen-5-yl)difluoromethyl)phosphonic acid] | – | – | – | > 10000 | DC50 [1, 9]: > 10 µM; DC50 [1, 10]: > 10 µM
8 | CN(C(=O)[C@@H]1C[C@@H](OCC(=O)NCCCCCCC#Cc2cccc3c2CN(C2CCC(=O)NC2=O)C3=O)CN1C(=O)[C@@H](NC(=O)c1cc2cc(C(F)(F)P(=O)(O)O)ccc2s1)C(C)(C)C)c1ccc(Br)cc1 (stereo partly drawn) [Compound 413, ((2-(((2S)-1-((2S,4R)-2-((4-bromophenyl)(methyl)carbamoyl)-4-(2-((8-(2-(2,6-dioxopiperidin-3-yl)-1-oxoisoindolin-4-yl)oct-7-yn-1-yl)amino)-2-oxoethoxy)pyrrolidin-1-yl)-3,3-dimethyl-1-oxobutan-2-yl)carbamoyl)benzo[b]thiophen-5-yl)difluoromethyl)phosphonic acid] | – | – | – | > 10000 | DC50 [1, 9]: > 10 µM; DC50 [1, 10]: > 10 µM
9 | CC(C)(C)[C@H](NC(=O)c1cc2cc(C(F)(F)P(=O)(O)O)ccc2s1)C(=O)N1CCC[C@H]1C(=O)N(CCC(=O)NCCCCC#Cc1cccc2c1CN(C1CCC(=O)NC1=O)C2=O)c1ccc(Br)cc1 (stereo partly drawn) [Compound 686, ((2-(((2S)-1-((2S)-2-((4-bromophenyl)(3-((6-(2-(2,6-dioxopiperidin-3-yl)-1-oxoisoindolin-4-yl)hex-5-yn-1-yl)amino)-3-oxopropyl)carbamoyl)pyrrolidin-1-yl)-3,3-dimethyl-1-oxobutan-2-yl)carbamoyl)benzo[b]thiophen-5-yl)difluoromethyl)phosphonic acid] | – | – | 100 to 1000 | – | DC50 ([1]; KU-812 cells, read-out: DC50 S6 KU-812): > 10 µM
10 | CC(C)(C)[C@H](NC(=O)c1cc2cc(C(F)(F)P(=O)(O)O)ccc2s1)C(=O)N1C[C@H](NC(=O)CCCCCC#Cc2cccc3c2CN(C2CCC(=O)NC2=O)C3=O)C[C@H]1C(=O)Nc1ncc(-c2ccccc2)s1 (stereo partly drawn) [Compound 567, ((2-(((2S)-1-((2S,4R)-4-(8-(2-(2,6-dioxopiperidin-3-yl)-1-oxoisoindolin-4-yl)oct-7-ynamido)-2-((5-phenylthiazol-2-yl)carbamoyl)pyrrolidin-1-yl)-3,3-dimethyl-1-oxobutan-2-yl)carbamoyl)benzo[b]thiophen-5-yl)difluoromethyl)phosphonic acid] | > 0.3 | – | – | – | DC50 [2, 8]: > 300 nM
11 | CN(CCCC#Cc1cccc2c1CN(C1CCC(=O)NC1=O)C2=O)C(=O)CCN(C(=O)[C@@H]1CCCN1C(=O)[C@@H](NC(=O)c1cc2cc(C(F)(F)P(=O)(O)OCOC(=O)C(C)(C)C)ccc2s1)C(C)(C)C)c1ccc2sccc2c1 (stereo partly drawn) [Compound 671, ((((2-(((2S)-1-((2S)-2-(benzo[b]thiophen-5-yl(3-((5-(2-(2,6-dioxopiperidin-3-yl)-1-oxoisoindolin-4-yl)pent-4-yn-1-yl)(methyl)amino)-3-oxopropyl)carbamoyl)pyrrolidin-1-yl)-3,3-dimethyl-1-oxobutan-2-yl)carbamoyl)benzo[b]thiophen-5-yl)difluoromethyl)(hydroxy)phosphoryl)oxy)methyl pivalate] | > 0.3 | < 100 | – | – | –

Reference: patent US20230295197A1, “STAT5 and STAT6 Degraders and Uses Thereof” (REGENTS OF THE UNIVERSITY OF MICHICAN, priority 2022, published 2023)
